Three compounds from patent US20240294478A1, “ANTI-CANCER COMPOUNDS AND METHODS OF USE” (YALE UNIVERSITY, priority 2021, published 2024) can be followed below.

In assay [1] the test system is PD20 cells, deficient in FANCD2 (FANCD2−/−) or complemented with FANCD2. The assay is described as follows: Short-term viability assay, PD20 cells. It counts as cell-based, human. Particulars: PD20 FANCD2−/− vs +FANCD2. The method, then:
(§1) FIGS. 8A-8K. (FIG. 8A) Change in percent cells with 1 micronuclei from baseline (DMSO control) after treatment as in FIGS. 5A and 5C. […] (FIG. 8B) Short-term viability assay curves for KL-50 in PD20 cells, deficient in FANCD2 (FANCD2−/−) or complemented with FANCD2 (+FANCD2). (FIG. 8C) Short-term viability assay curves for KL-50 in PEO4 (BRCA2+) and PEO1 (BRCA2−/−) cells pre-treated with 0.01% DMSO control or 10 μM O^6BG (+O^6BG) for 1 h prior to KL-50 addition. (FIG. 8D) Short-term viability assay curves for KL-50 in DLD1 BRCA2+/− and BRCA2−/−cells pre-treated with 0.01% DMSO control or 10 μM O^6BG (+O^6BG) for 1 h prior to KL-50 addition. For FIGS. 8B-8D, points, mean; error bars, SD; n=3 technical replicates. […] Change in percent cells with 1 micronuclei from baseline (DMSO control) after treatment with olaparib (10 μM) for 48 h in LN229 MGMT+/−, MMR+/−cells. […] Western blot analysis of FANCD2 ubiquitination in LN229 MGMT+/−, MMR+/−cells and PD20 FANCD2-deficient cells, complemented with empty vector (FANCD2+EV), wildtype FANCD2 (PD20+FD2) or ubiquitination-mutant FANCD2 (PD20+KR). The % FANCD2 ubiquitination (% FANCD2 Ub) is quantified as the background-corrected integrated band intensity of the upper band divided by the sum of the background-corrected integrated band intensities of the upper and lower bands. The fold change in % FANCD2 ubiquitination is presented for each cell line relative to DMSO-treated cells. Vinculin serves as loading control. For 8J-8K, points, mean; error bars, SD; n=3 technical replicates.
(§2) Short-term Cell Viability Assay. Cells were seeded in 96-well plates at 1000 or 2000 cells/well and allowed to adhere at 23° C. for 60 min and then incubated overnight at 37° C. […] Cells were imaged on a Cytation 3 imaging reader (BioTek) and quantified using CellProfiler software. For in vitro short-term growth delay experiments, IC50 values were determined from the nonlinear regression equation, [inhibitor] vs normalized response with variable slope.

Assay [2] relates to PEO4 (BRCA2+) and PEO1 (BRCA2−/−) cells. The assay is described as follows: Short-term viability assay, PEO1/PEO4 model +/- O6BG. It counts as cell-based, human. Particulars: PE01/4 model. The method, then: FIGS. 8A-8K. (FIG. 8A) Change in percent cells with 1 micronuclei from baseline (DMSO control) after treatment as in FIGS. 5A and 5C. […] (FIG. 8B) Short-term viability assay curves for KL-50 in PD20 cells, deficient in FANCD2 (FANCD2−/−) or complemented with FANCD2 (+FANCD2). (FIG. 8C) Short-term viability assay curves for KL-50 in PEO4 (BRCA2+) and PEO1 (BRCA2−/−) cells pre-treated with 0.01% DMSO control or 10 μM O^6BG (+O^6BG) for 1 h prior to KL-50 addition. (FIG. 8D) Short-term viability assay curves for KL-50 in DLD1 BRCA2+/− and BRCA2−/−cells pre-treated with 0.01% DMSO control or 10 μM O^6BG (+O^6BG) for 1 h prior to KL-50 addition. For FIGS. 8B-8D, points, mean; error bars, SD; n=3 technical replicates. […] The % FANCD2 ubiquitination (% FANCD2 Ub) is quantified as the background-corrected integrated band intensity of the upper band divided by the sum of the background-corrected integrated band intensities of the upper and lower bands. […]
Short-term Cell Viability Assay. […] Cells were imaged on a Cytation 3 imaging reader (BioTek) and quantified using CellProfiler software. For in vitro short-term growth delay experiments, IC50 values were determined from the nonlinear regression equation, [inhibitor] vs normalized response with variable slope.

Assay [3] has as its system DLD1 BRCA2+/− and BRCA2−/− cells. The assay is described as follows: Short-term viability assay, DLD1 BRCA2 isogenic model +/- O6BG. It counts as cell-based, human. Particulars: DLD1 isogenic model. The method, then: as §1, §2
The subject of assay [4] is linearized pUC19 plasmid DNA. Nature of the assay: Melting temperature assay. It counts as biochemical. The note with it: 100 or 500 μM for 3 h. The method, then:
Columns, mean; error bars, SD; n=2 independent analyses. For (A) and (C), points, mean; error bars, SD; n=3 technical replicates.
Melting Temperature Assay. Linearized pUC19 DNA (750 ng), prepared as described above, was incubated with the indicated concentration of either MMS or KL-50 adjusted in a final volume of 18 μL in 100 mM Tris buffer (pH 7.4) for 3 h. Drug stock concentrations were made in DMSO such that each reaction contained a fixed 5% DMSO concentration. Afterwards, 1 μL each of 20×SYBR Green dye (Invitrogen) and 20×ROX reference dye (Invitrogen) was added and melting temperature analysis was run on a StepOnePlus RT PCR System (Applied Biosciences) to generate melting temperature curves.

Molecules are shown by their SMILES.

Consider `CO[C@@]12[C@H](COC(N)=O)C3=C(C(=O)C(C)=C(N)C3=O)N1C[C@@H]1N[C@@H]12` [MMC, Mitomycin C], for which the “sensitivity of FANCD2-deficient cells” value in assay [1] is “hypersensitivity to crosslinking agents in FANCD2−/−cells”. Turning to `N.N.[Cl][Pt][Cl]` [cisplatin, reference compound], in assay [1], the “sensitivity of FANCD2-deficient cells” value is on record as “hypersensitivity to crosslinking agents in FANCD2−/−cells”. Further, in assay [2], the “therapeutic index (TI)” value stood at 13 fold. Further, in assay [3], the “therapeutic index (TI), ratio of IC50 values in MGMT+/BRCA2+ cells compared to MGMT−/BRCA2− cells” value is listed as 42 fold. In the case of `COS(C)(=O)=O` [MMS, Methylmethane sulfonate, reference compound], in assay [4], the “change in DNA melting temperature” value is recorded as “comparable changes in measured DNA melting temperature”.
